Measured values from US12421212B2, “Substituted benzenecarboxamides as IL-17A modulators” (DiCE Alpha, Inc., priority 2019, dated 2025).

Molecular target: T1, IL-17A/A (Homo sapiens, UniProt Q16552)
T1 construct: purchased Genscript Z03228
T1 sequence (Q16552 24-155): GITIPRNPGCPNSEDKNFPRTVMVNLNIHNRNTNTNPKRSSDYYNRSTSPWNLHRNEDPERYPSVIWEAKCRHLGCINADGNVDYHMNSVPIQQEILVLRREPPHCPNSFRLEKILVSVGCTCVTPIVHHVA
Test: IL-17A/A HEK-Blue Cell Assay
Type: cell-based
Conditions: HEK-Blue IL-17A reporter cell line, SEAP readout at A630, 20 hours incubation with IL-17A/A, top concentration 10 uM, 1 uM or 0.3 uM; for IC50: read-out: IL-17A/A inhibition (pIC50) (converted)

IC50 [µM]	Structure (SMILES)	IL-17A/A inhibition (pIC50)
0.01 to 0.1	CCn1nccc1C(=O)N[C@H](C(=O)Nc1ccc([C@H](C)[C@@H](NC(=O)[C@H](C)CC(=O)O)C(=O)N2CCN(C)CC2)cc1F)[C@H]1CC[C@H](C)CC1 [Compound 474]	–
0.01 to 0.1	CCC(=O)N[C@@H](C(=O)N1CC2(C1)CC(F)(F)C2)[C@@H](C)c1ccc(NC(=O)[C@@H](NC(=O)c2ccnn2CC)[C@H]2CC[C@H](C)CC2)c(F)c1 [Compound 373]	–
0.01 to 0.1	CCc1nonc1C(=O)N[C@H](C(=O)Nc1ccc([C@H](C)[C@@H](NC(=O)N2CCCC2)C(=O)N2CCN(C)CC2)cc1F)[C@H]1CC[C@H](C)CC1 [Compound 515]	–
< 0.01	CCC(=O)N[C@@H](C(=O)N1CCC(C)(O)CC1)[C@@H](C)c1ccc(NC(=O)[C@@H](NC(=O)c2ccnn2CC)C2CCCCCC2)c(F)c1 [Compound 350]	–
0.1 to 10	CCn1nccc1C(=O)N[C@H](C(=O)Nc1ccc([C@H](C)[C@@H](NC(=O)c2cc(C)n[nH]2)C(=O)N2CCN(C)CC2)cc1F)C1CCCCC1 [Compound 666]	–
0.01 to 0.1	CCc1nonc1C(=O)N[C@H](C(=O)Nc1ccc([C@H](C)[C@@H](NC(=O)[C@H](C)F)C(=O)N2CCN(C)CC2)cc1F)[C@H]1CC[C@H](C)CC1 [Compound 491]	–
0.01 to 0.1	CCn1nccc1C(=O)N[C@H](C(=O)Nc1ccc([C@H](C)[C@@H](NC(=O)c2conc2C2CCNCC2)C(=O)N2CCC(C)(O)CC2)cc1F)[C@H]1CC[C@H](C)CC1 [Compound 442]	–
0.01 to 0.1	CCn1nccc1C(=O)N[C@H](C(=O)Nc1ccc([C@H](C)[C@@H](NC(=O)c2cnns2)C(=O)N2CCNC3(CC3)C2)cc1F)[C@H]1CC[C@H](C)CC1 [Compound 438]	–
0.1 to 10	CCC(=O)N[C@@H](C(=O)N1CCN(C)CC1)[C@@H](C)c1ccc(NC(=O)[C@@H](NC(=O)c2ccnn2CC)[C@H]2CC[C@H](C(F)(F)F)CC2)c(F)c1 [Compound 649]	–
< 0.01	CCn1nccc1C(=O)N[C@H](C(=O)Nc1ccc([C@H](C)[C@@H](NC(=O)c2cnns2)C(=O)N2CCN(C)CC2)cc1F)C1CCCCCC1 [Compound 337]	–
0.01 to 0.1	CCC(=O)N[C@@H](C(=O)N1CCN(CCO)CC1)[C@@H](C)c1ccc(NC(=O)[C@@H](NC(=O)c2ccnn2CC)[C@H]2CC[C@H](C)CC2)c(F)c1 [Compound 423]	–

Further lines, the molecule ahead of its results:

Structure (SMILES)	IC50 [µM]	IL-17A/A inhibition (pIC50)
CCC(=O)N[C@@H](C(=O)N1CCN(C)CC1)[C@@H](C)c1ccc(NC(=O)[C@@H](NC(=O)C(F)(F)c2cccc(C#N)c2)[C@H]2CC[C@H](C(F)(F)F)CC2)c(F)c1 [Compound 286]	0.01 to 0.1	–
CCC(=O)N[C@@H](C(=O)N1CCN(C)CC1)[C@H](C)c1ccc(NC(=O)[C@@H](NC(=O)c2ccnn2CC)C2CCCCC2)cc1 [Compound 771]	–	X1a (compounds were evaluated up to 10 uM and did not inhibit activity by >80%, however they showed some activity at 10 uM (less than 80% and more than 20%))
CCc1nonc1C(=O)N[C@H](C(=O)Nc1ccc([C@H](C)[C@@H](NC(=O)c2ncns2)C(=O)N2CCN(C)CC2)cc1F)[C@H]1CC[C@H](C)CC1 [Compound 575]	–	X3a (compounds were evaluated up to 0.3 uM and did not inhibit activity by >80%, however they showed some activity at 0.3 uM (less than 80% and more than 20%))
CCC(=O)N[C@H](Cc1ccc(NC(=O)[C@@H](NC(=O)c2cnn3c2CCC3)C2CCCCC2)c(F)c1)C(=O)N1CCN(C)CC1 [Compound 703]	–	X2a (compounds were evaluated up to 1 uM and did not inhibit activity by >80%, however they showed some activity at 1 uM (less than 80% and more than 20%))
CCC(=O)N[C@@H](C(=O)N1CCN(C)CC1)[C@@H](C)c1ccc(NC(=O)C(NC(=O)c2ccnn2CC)C2CCc3cc(F)ccc32)c(F)c1 (single isomer, unassigned) [Compound 571]	–	X2a (compounds were evaluated up to 1 uM and did not inhibit activity by >80%, however they showed some activity at 1 uM (less than 80% and more than 20%))
CCn1nccc1C(=O)N[C@H](C(=O)Nc1ccc(C[C@@H](NC(=O)c2ccnn2C2CCN(C)CC2)C(=O)N2CCN(C)CC2)cc1F)C1CCCCC1 [Compound 321]	0.01 to 0.1	–
CCC(=O)N[C@H](C(=O)NC1CCOCC1)[C@@H](C)c1ccc(NC(=O)[C@@H](NC(=O)c2ccnn2CC)C2CCCCC2)c(F)c1 [Compound 757]	–	X2b (compounds were evaluated up to 1 uM and inhibited activity at 1 uM by less than 20%)
CCC(=O)N[C@@H](C(=O)N(C)Cc1cncn1C)[C@@H](C)c1ccc(NC(=O)[C@@H](NC(=O)c2nonc2CC)[C@H]2CC[C@H](C)CC2)c(F)c1 [Compound 455]	0.1 to 10	–
CCC(=O)N[C@@H](C(=O)N1CCN(C)CC1)[C@@H](C)c1ccc(NC(=O)C(NC(=O)C(F)(F)c2cccc(C#N)c2)[C@@H](C)c2ccccc2)c(F)c1 (stereo partly shown) [Compound 290]	< 0.01	–
CCC(=O)N[C@@H](C(=O)N1CCN(C)CC1)[C@@H](C)c1ccc(NC(=O)[C@@H](NC(=O)C(F)(F)c2ccc3c(c2)OCO3)C2CCCCC2)c(F)c1 [Compound 244]	0.01 to 0.1	–
C[C@@H](c1ccc(NC(=O)[C@@H](NC(=O)C(F)(F)c2cccc(C#N)c2)C2CCCCCC2)c(F)c1)[C@@H](O)C(=O)N1CCN(C)CC1 [Compound 383]	0.01 to 0.1	–
CCC(=O)N[C@@H](C(=O)N1CCN(Cc2ccccc2)CC1)[C@H](C)c1ccc(NC(=O)[C@@H](NC(=O)c2ccnn2CC)C2CCCCC2)c(F)c1 [Compound 670]	0.1 to 10	–
CCC(=O)N[C@@H](C(=O)N1CCN(C)CC1)[C@@H](C)c1ccc(NC(=O)C(NC(=O)c2nonc2CC)C(CC)c2ccc(F)cc2)c(F)c1 (single isomer, unassigned) [Compound 559]	–	X2b (compounds were evaluated up to 1 uM and inhibited activity at 1 uM by less than 20%)
CCC(=O)N[C@H](Cc1ccc(NC(=O)[C@@H](NC(=O)c2ccnn2CC(F)F)C2CCCCC2)c(F)c1)C(=O)N1CCN(C)CC1 [Compound 669]	0.1 to 10	–
CCC(=O)N[C@H](Cc1ccc(NC(=O)[C@@H](NC(=O)c2cnc(C(=O)NCC(F)F)[nH]2)C2CCCCC2)c(F)c1)C(=O)N1CCN(C)CC1 [Compound 783]	–	X1b (compounds were evaluated up to 10 uM and inhibited activity at 10 uM by less than 20%)
CCC(=O)N[C@H](Cc1ccc(NC(=O)[C@@H](NC(=O)c2ccnn2CC)C2CCCCC2)c(F)c1)C(=O)N1CCN2CCCC[C@@H]2C1 [Compound 697]	–	X2a (compounds were evaluated up to 1 uM and did not inhibit activity by >80%, however they showed some activity at 1 uM (less than 80% and more than 20%))
CCC(=O)N[C@H](Cc1ccc(NC(=O)[C@@H](NC(=O)C(F)(F)c2ccccc2)C2CCCCC2)c(F)c1)C(=O)N1CCN(C)CC1 [Compound 204]	0.1 to 10	–
CCC(=O)N[C@@H](C(=O)N1CCN(C)CC1)[C@@H](C)c1ccc(NC(=O)[C@@H](NC(=O)c2ccnn2C(C)C)C2CCCCCC2)cc1 [Compound 232]	0.01 to 0.1	–
CCC(=O)N[C@@H](C(=O)N1CCN(C)CC1)[C@@H](C)c1ccc(NC(=O)C(NC(=O)c2ccnn2CC)C(C)C2CCC(F)(F)CC2)c(F)c1 (single isomer, unassigned) [Compound 591]	–	X3b (compounds were evaluated up to 0.3 uM and inhibited activity at 0.3 uM by less than 20%)
CCC(=O)N[C@@H](C(=O)N1CCN(C)CC1)[C@@H](C)c1ccc(NC(=O)C(NC(=O)c2nonc2CC)C(CC)c2ccc(Cl)cc2)c(F)c1 (single isomer, unassigned) [Compound 565]	< 0.01	–
